Measurements taken from article PMC8922281, “Synthesis and In Vitro Biological Evaluation of Quinolinyl Pyrimidines Targeting Type II NADH-Dehydrogenase (NDH-2)” (ACS Infectious Diseases, 2022).
Values after ≈ are worked out from the molar mass of the structure shown. Values joined by “and” are separate entries in the source; they are usually repeats but may differ in a detail not shown here. Equal entries are not always repeated. Where two headings read alike, the source gives them in different places.

Experiments:
MtNDH-2 = MtNDH-2 (Mycobacterium tuberculosis, UniProt P95160); assay: biochemical; set-up: species or system M. tuberculosis; conditions: MtNDH-2 IC50
MsNDH-2 = MsNDH-2 (Mycolicibacterium smegmatis, UniProt A0QYD6); assay: Inhibition of MsNDH-2 (NADH oxidation with menadione, absorbance at 340 nm); assay type: biochemical, M. smegmatis
[1] = test system: E. coli (ATCC 25922, wild-type); assay: MIC on ESKAPE pathogens, E. coli wild-type; assay type: cell-based; conditions: Escherichia coli
[2] = test system: E. coli (ΔtolC efflux-defective mutant, isogenic to ATCC 25922); assay: microbe, parasite or virus in culture; assay type: cell-based; conditions: Escherichia coli, ATCC25922, read-out: MIC Ec ΔtolC
[3] = test system: E. coli (D22, lpxC mutant, drug-hypersensitive); assay: microbe, parasite or virus in culture; assay type: cell-based; conditions: Escherichia coli, read-out: MIC Ec D22
[4] = test system: P. aeruginosa (PAO1, wild-type); assay: MIC on ESKAPE pathogens, P. aeruginosa wild-type; assay type: cell-based; conditions: Pseudomonas aeruginosa, PAO1, P. aeruginosa PAO1, wild-type; read-out: MIC Pa WT
[5] = test system: P. aeruginosa (PAO750 efflux-defective mutant, isogenic to PAO1); assay: microbe, parasite or virus in culture; assay type: cell-based; conditions: Pseudomonas aeruginosa, PAO1, read-out: MIC Pa efflux
[6] = test system: A. baumannii (ATCC 19606, wild-type); assay: MIC on ESKAPE pathogens, A. baumannii; assay type: cell-based; conditions: Acinetobacter baumannii
[7] = test system: S. aureus (ATCC 29213, wild-type); assay: MIC on ESKAPE pathogens, S. aureus; assay type: cell-based; conditions: Staphylococcus aureus, ATCC29213
[8] = test system: M. tuberculosis strain H37Rv (ATCC 25618); assay: MIC on M. tuberculosis by resazurin reduction microplate assay (REMA); assay type: cell-based; conditions: Mycobacterium tuberculosis, M. tuberculosis H37Rv, read-out: MIC Mtb
[9] = Cytotoxicity on the MRC-5 cell line (resazurin); assay type: cell-based; conditions: human, MRC-5SV2 cells, MRC-5SV2, 3 days
Method: MRC-5SV2 cells were cultured in Earl’s MEM + 5% FCSi. Assays were performed in 96-well microtiter plates, each well containing about 10^4 cells/well. After 3 days of incubation with or without compounds, cell viability was assessed fluorimetrically after the addition of resazurin (λex 550 nm, λem 590 nm). The results were expressed as % reduction in cell growth/viability compared to untreated control wells and CC50 was determined. Testing/retesting strategy was as described above for HepG2 cells.

[10] = test system: K. pneumonia (ATCC 13833, wild-type); assay: MIC on ESKAPE pathogens, K. pneumoniae
[11] = 95% confidence interval in parentheses, 50 nM enzyme, 50 μM menadione, >100: no significant inhibition at 100 μM
[12] = same IC50 given in μg/mL to assist comparisons with MICs
[13] = ATCC25922, E. coli ATCC 25922, wild-type, read-out: MIC Ec WT
[14] = ATCC19606, A. baumannii ATCC 19606, wild-type, read-out: MIC Ab WT

MtNDH-2, sequence (P95160 2-463, added parts left off): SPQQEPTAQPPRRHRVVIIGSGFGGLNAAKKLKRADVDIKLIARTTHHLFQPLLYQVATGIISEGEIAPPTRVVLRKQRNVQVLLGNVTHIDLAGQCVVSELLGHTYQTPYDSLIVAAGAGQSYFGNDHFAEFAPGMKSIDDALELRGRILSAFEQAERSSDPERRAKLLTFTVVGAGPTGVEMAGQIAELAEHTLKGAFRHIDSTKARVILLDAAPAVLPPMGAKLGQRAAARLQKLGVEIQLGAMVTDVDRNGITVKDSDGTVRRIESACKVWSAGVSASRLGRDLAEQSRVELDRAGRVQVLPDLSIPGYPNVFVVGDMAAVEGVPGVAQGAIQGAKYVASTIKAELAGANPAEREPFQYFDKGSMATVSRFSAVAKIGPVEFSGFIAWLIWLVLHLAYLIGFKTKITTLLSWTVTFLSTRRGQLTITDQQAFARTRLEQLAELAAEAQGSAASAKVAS
MsNDH-2, sequence (A0QYD6 1-457): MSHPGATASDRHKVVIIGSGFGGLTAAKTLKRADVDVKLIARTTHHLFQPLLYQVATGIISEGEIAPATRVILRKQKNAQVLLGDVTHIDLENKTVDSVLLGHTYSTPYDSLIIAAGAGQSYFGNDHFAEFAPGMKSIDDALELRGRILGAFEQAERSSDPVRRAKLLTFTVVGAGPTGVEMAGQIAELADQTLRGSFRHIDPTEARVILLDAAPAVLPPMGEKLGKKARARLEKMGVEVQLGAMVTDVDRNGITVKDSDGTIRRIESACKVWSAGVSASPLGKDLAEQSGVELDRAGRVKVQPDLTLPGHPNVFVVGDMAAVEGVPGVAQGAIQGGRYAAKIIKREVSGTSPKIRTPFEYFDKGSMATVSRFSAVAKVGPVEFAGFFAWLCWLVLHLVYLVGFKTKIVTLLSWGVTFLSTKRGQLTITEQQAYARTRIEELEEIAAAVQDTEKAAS

SMILES | IC50 (MtNDH-2) | IC50 (MsNDH-2; [11]) [µM] | IC50 (MsNDH-2; [12]) [µM] | MIC [1, 13] [µg/mL] | MIC [2] [µg/mL] | MIC [3] [µg/mL] | MIC [4] [µg/mL] | MIC [5] [µg/mL] | MIC [6, 14] [µg/mL] | MIC [7] [µg/mL] | MIC [8] [µg/mL] | IC50 at 3 days ([9]; resazurin) [µM] | IC50 at 3 days ([9]; value in parentheses) [µg/mL] | MIC Kp WT [10] [µg/mL] | MIC ([1]; ATCC25922, read-out: MIC Ec WT) [µg/mL] | MIC ([6]; ATCC19606, read-out: MIC Ab WT) [µg/mL]
CN(C)c1cc(Nc2ccc3nc(-c4ccc(F)cc4)cc(N)c3c2)nc(N)n1 [Compound 8k, N^4-(4-Amino-2-(4-fluorophenyl)quinolin-6-yl)-N^6,N^6-dimethylpyrimidine-2,4,6-triamine] | 1.3 µM and 1.31 µM | 2.7 | 2.82 | 32 (≈ 82.2 µM) | 2 (≈ 5.14 µM) | 8 (≈ 20.5 µM) | > 64 | 4 (≈ 10.3 µM) | 8 (≈ 20.5 µM) | 8 (≈ 20.5 µM) | 5.9 (≈ 15.2 µM) | 1.8 | 0.7 | 64 (≈ 164 µM) | – | –
Nc1nc(Nc2ccc3nc(-c4ccc(F)cc4)cc(N)c3c2)cc(OCCO)n1 [Compound 9b, 2-((2-Amino-6-((4-amino-2-(4-fluorophenyl)quinolin-6-yl)amino)pyrimidin-4-yl)oxy)ethan-1-ol] | 2.5 µM and 2.46 µM | 13 | 12.8 | 32 (≈ 78.7 µM) | 8 (≈ 19.7 µM) | 16 (≈ 39.4 µM) | ≥ 64 | 32 (≈ 78.7 µM) | 32 (≈ 78.7 µM) | 16 (≈ 39.4 µM) | 9.8 (≈ 24.1 µM) | 8 | 3.3 | 32 (≈ 78.7 µM) | – | –
Nc1nc(Nc2ccc3nc(-c4ccc(F)cc4)cc(N)c3c2)cc(=O)[nH]1 [Compound 12, 2-Amino-6-((4-amino-2-(4-fluorophenyl)quinolin-6-yl)amino)pyrimidin-4(3H)-one] | 1.5 µM and 1.49 µM | > 20 | > 19.9 | 32 (≈ 88.3 µM) | 16 (≈ 44.2 µM) | 16 (≈ 44.2 µM) | > 64 | 32 (≈ 88.3 µM) | 32 (≈ 88.3 µM) | 32 (≈ 88.3 µM) | 9.2 (≈ 25.4 µM) | – | – | 32 (≈ 88.3 µM) | – | –
Nc1cc(-c2ccc(F)cc2)nc2ccc(Nc3cc(N4CCNCC4)ncn3)cc12 [Compound 15, 2-(4-Fluorophenyl)-N^6-(6-(piperazin-1-yl)pyrimidin-4-yl)quinoline-4,6-diamine] | 6 µM and 6.02 µM | 23 | 20.9 | > 64 | 16 (≈ 38.5 µM) | 16 (≈ 38.5 µM) | 32 (≈ 77 µM) | 8 (≈ 19.3 µM) | > 64 | > 64 | > 42 | 1.7 | 0.7 | >64 | – | –
Nc1nc(Nc2ccc3nc(-c4ccc(F)cc4)cc(N)c3c2)cc(N2CCN(CCO)CC2)n1 [Compound 8e, 2-(4-(2-Amino-6-((4-amino-2-(4-fluorophenyl)quinolin-6-yl)amino)pyrimidin-4-yl)piperazin-1-yl)ethan-1-ol] | 6.6 µM and 6.53 µM | > 100 | > 99 | – | 32 (≈ 67.4 µM) | 32 (≈ 67.4 µM) | 64 (≈ 135 µM) | > 128 | – | 128 (≈ 270 µM) | 16 (≈ 33.7 µM) | – | – | 128 (≈ 270 µM) | > 128 | > 128
CCOc1cc(Nc2ccc3nc(-c4ccc(F)cc4)cc(N)c3c2)nc(N)n1 [Compound 9a, N^6-(2-Amino-6-ethoxypyrimidin-4-yl)-2-(4-fluorophenyl)quinoline-4,6-diamine] | 0.9 µM and 0.896 µM | 5.3 | 5.38 | 64 (≈ 164 µM) | 2 (≈ 5.12 µM) | 4 (≈ 10.2 µM) | > 128 | 16 (≈ 41 µM) | 2 (≈ 5.12 µM) | 2 (≈ 5.12 µM) | 3.4 (≈ 8.71 µM) | 1.6 | 0.6 | 64 (≈ 164 µM) | – | –
Nc1cc(-c2ccc(F)cc2)nc2ccc(Nc3cc(Cl)ncn3)cc12 [Compound 14, N^6-(6-Chloropyrimidin-4-yl)-2-(4-fluorophenyl)quinoline-4,6-diamine] | 1.5 µM | 5.1 | 5.19 | > 64 | > 64 | 64 (≈ 175 µM) | > 64 | > 64 | > 64 | 64 (≈ 175 µM) | 4.8 (≈ 13.1 µM) | – | – | >64 | – | –
CC(C)(C)OC(=O)NC1CCN(c2cc(Nc3ccc4nc(-c5ccc(F)cc5)cc(N)c4c3)nc(N)n2)CC1 [Compound 8i, tert-Butyl (1-(2-Amino-6-((4-amino-2-(4-fluorophenyl)quinolin-6-yl)amino)pyrimidin-4-yl)piperidin-4-yl)carbamate] | 0.441 µM | 0.95 | 0.918 | 64 (≈ 118 µM) | 8 (≈ 14.7 µM) | 4 (≈ 7.34 µM) | 64 (≈ 118 µM) | 32 (≈ 58.8 µM) | 8 (≈ 14.7 µM) | 1 (≈ 1.84 µM) | 6.1 (≈ 11.2 µM) | 1.3 | 0.7 | 64 (≈ 118 µM) | – | –
CN(CCO)c1cc(Nc2ccc3nc(-c4ccc(F)cc4)cc(N)c3c2)nc(N)n1 [Compound 8l, 2-((2-Amino-6-((4-amino-2-(4-fluorophenyl)quinolin-6-yl)amino)pyrimidin-4-yl)(methyl)amino)ethan-1-ol] | 11 µM and 11.4 µM | 16 | 16.2 | 16 (≈ 38.1 µM) | 8 (≈ 19.1 µM) | 8 (≈ 19.1 µM) | > 64 | > 64 | > 64 | 32 (≈ 76.3 µM) | 9.8 (≈ 23.4 µM) | 7.8 | 3.3 | >64 | – | –
Nc1nc(Nc2ccc3nc(-c4ccc(F)cc4)cc(N)c3c2)cc(N2CCC(CO)CC2)n1 [Compound 8n, (1-(2-Amino-6-((4-amino-2-(4-fluorophenyl)quinolin-6-yl)amino)pyrimidin-4-yl)piperidin-4-yl)methanol] | 4.1 µM and 4.13 µM | – | – | 64 (≈ 139 µM) | 16 (≈ 34.8 µM) | 32 (≈ 69.6 µM) | > 64 | 64 (≈ 139 µM) | 64 (≈ 139 µM) | 32 (≈ 69.6 µM) | 17.7 (≈ 38.5 µM) | 3.7 | 1.7 | >64 | – | –
CNCCN(C)c1cc(Nc2ccc3nc(-c4ccc(F)cc4)cc(N)c3c2)nc(N)n1 [Compound 8m, N^4-(4-Amino-2-(4-fluorophenyl)quinolin-6-yl)-N^6-methyl-N^6-(2-(methylamino)ethyl)pyrimidine-2,4,6-triamine] | 16 µM | 19 | 18.5 | > 64 | 32 (≈ 74 µM) | 32 (≈ 74 µM) | 32 (≈ 74 µM) | 16 (≈ 37 µM) | > 64 | > 64 | 21.6 (≈ 49.9 µM) | 7.6 | 3.3 | >64 | – | –
